Data: PMC10793205, “Differential transmetallation of complexes of the anti-cancer thiosemicarbazone, Dp4e4mT: effects on anti-proliferative efficacy, redox activity, oxy-myoglobin and oxy-hemoglobin oxidation” (Chemical Science, 2023)
“Also recorded” adds a separate entry of the source.

What was measured:
[1] = Cyclic voltammetry (redox potentials); type: physicochemical; conditions: 1 mM in MeCN/H2O 7 : 3 (v/v) + 0.1 M Et4NClO4, sweep rate 100 mV s^−1
Text: The redox potentials of Fe(III)- and Cu(II)-thiosemicarbazone complexes have been extensively studied and are important for understanding intracellular redox activity and ROS generation.[23,27,28,42] Considering this, the electrochemical properties of [Fe(Dp44mT)2]^+, [Fe(DpC)2]^+, [Fe(Dp4e4mT)2]^+, [Co(Dp4e4mT)2]^+, [Ni(Dp4e4mT)2], [Cu(Dp4e4mT)Cl], [Ga(Dp4e4mT)2]^+, and [Pd(Dp4e4mT)Cl] were investigated with cyclic voltammetry in MeCN : H2O (70 : 30 v/v; Fig. 4A and B). This solvent system was implemented to provide sufficient solubility and because it has been used by our laboratories previously to measure potentials of thiosemicarbazone complexes enabling effective comparison.[28,45,57–59]
Fig. 4 Cyclic voltammograms of: (A) [Fe(Dp44mT)2]^+, [Fe(DpC)2]^+, and [Fe(Dp4e4mT)2]^+. (B) [Co(Dp4e4mT)2]^+, [Ni(Dp4e4mT)2], [Cu(Dp4e4mT)Cl], [Ga(Dp4e4mT)2]^+, and [Pd(Dp4e4mT)Cl] (1 mM in MeCN/H2O 7 : 3 (v/v) + 0.1 M Et4NClO4) at a sweep rate of 100 mV s^−1. The voltammograms were recorded using a glassy carbon working electrode versus a […] (NHE). […]
Cyclic voltammograms were acquired for the Fe(III), Co(III), Ni(II), Cu(II), Ga(III), and Pd(II) complexes of Dp4e4mT utilizing a BAS100B/W potentiostat, equipped with an aqueous Ag/AgCl reference electrode, a glassy carbon working electrode, and a Pt wire auxiliary […]
electrode. […]

[2] = target: T1, oxy-Hb in intact human erythrocytes (Homo sapiens, UniProt P68871+P69905); assay: Oxidation of oxy-Hb in intact human erythrocytes; type: cell-based; conditions: 10 μM, 3 h/37 °C
T1 construct: Physiologically, oxy-Hb is found in erythrocytes; endogenous in cells; host or cells: intact human erythrocytes from fresh blood of healthy donors
Method: Fig. 7 (A and B) Investigation of the effects of Dp4e4mT and its Fe(III), Co(III), Ni(II), Cu(II), Zn(II), Ga(III), and Pd(II) complexes versus DFO, Dp44mT, DpC and their Fe(III) complexes (10 μM) on met-Hb generation (% zero time) after an incubation of 1–3 h/20 °C with purified oxy-Hb (40 μM). (C) Investigation of the effects of Dp4e4mT and its Fe(III), Co(III), Ni(II), Cu(II), Zn(II), Ga(III), or Pd(II) complexes relative to the positive controls DFO, Dp44mT, DpC, and their Fe(III) complexes (10 μM) on oxy-Hb oxidation in intact human erythrocytes after a 3 h/37 °C incubation. Results are mean ± SD (3 experiments).
Physiologically, oxy-Hb is found in erythrocytes, and in the current investigation, the ligands and complexes (10 μM) were incubated with intact human erythrocytes for 3 h/37 °C to assess their effects on oxy-Hb oxidation (Fig. 7C). As expected from our previous studies,[28,39] […]
In experiments examining the activity of the agents, all complexes were dissolved in 1,2-propanediol, then diluted to 10 µM in PBS (pH 7.2). […]
1800; Shimadzu, Kyoto, Japan). Concentrations of met-Mb and met-Hb, as well as reduced-Mb and reduced-Hb, were determined at 409 nm and 435 nm, respectively. Concentrations of oxy-Mb and oxy-Hb were determined at 544 nm and 582 nm, respectively. 17 Oxidation of Oxy-Hb in Human Erythrocytes
Oxidation of oxy-Hb in human erythrocytes was performed by standard methods using fresh blood from healthy donors after collection in Vacutainer® collection tubes (BD, Plymouth, UK).8 Erythrocytes centrifuged (480 xg/5 min/4°C) and then washed in HBSS, and subsequently resuspended in this buffer. Incubation of the erythrocytes (15% hematocrit) in the absence or presence of the agents (10 μM) was performed for 3 h/37°C. The erythrocytes were […]

oxy-Mb = target: T2, oxy-Mb (Homo sapiens, UniProt P02144); assay: Oxidation of purified oxy-Mb to met-Mb (UV-vis); type: biochemical; conditions: 10 μM agent, oxy-Mb 40 μM, 3 h incubation, 20 °C
T2 sequence (P02144 1-154): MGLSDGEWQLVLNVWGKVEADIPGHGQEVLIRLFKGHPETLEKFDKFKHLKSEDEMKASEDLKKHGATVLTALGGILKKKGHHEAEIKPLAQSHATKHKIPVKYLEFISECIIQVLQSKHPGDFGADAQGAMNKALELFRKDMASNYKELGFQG
Text: As such, it was important to examine the effect of the Dp4e4mT complexes on oxy-Hb and oxy-Mb oxidation (Fig. 6 and 7). Comparisons were made to three controls, namely DFO, Dp44mT, and DpC, as well as their Fe(III) complexes. […] In contrast, the Fe(III) complexes of Dp44mT and DpC were positive controls, as they induce oxidation of oxy-Mb.[28,39,42]
Fig. 6 (A and B) Investigation of the effects of Dp4e4mT and its Fe(III), Co(III), Ni(II), Cu(II), Zn(II), Ga(III), and Pd(II) complexes versus the positive controls DFO, Dp44mT, DpC and their Fe(III) complexes (10 μM) on met-Mb generation (% zero time) after an incubation of 1–3 h/20 °C with purified oxy-Mb (40 μM). Results are mean ± SD (3 experiments).
Spectroscopic Examination of Met-Mb and Met-Hb Formation from Oxy-Mb and Oxy- […]
Oxy-Mb and oxy-Hb solutions were prepared following established protocols.8, 17 In brief, solutions of reduced Mb and Hb in PBS (pH 7.2) were prepared by adding 1.2 mL of Na2S2O4 (12 mM) to 38 mL of met-Mb and met-Hb solution (40 μM). 17 Subsequently, oxy-Mb and oxy-Hb were generated by gently passing 150 mL of oxygen (from an air-filled syringe) through the solution containing reduced Mb and Hb, effectively eliminating any residual Na2S2O4. Following this, the oxy-Mb and oxy-Hb solutions were passed through a PD-10 column prepacked with 8.3 mL of Sephadex G-25 and equilibrated with PBS (pH 7.2). 17 In experiments examining the activity of the agents, all complexes were dissolved in 1,2-propanediol, then diluted to 10 µM in PBS (pH 7.2). The experiments were conducted over incubations of 0 to 3 h with the agents. UV-Vis spectra covering the range of 300 to 700 nm were recorded at a temperature of 20°C using a Shimadzu UV−Vis spectrophotometer (UV-1800; Shimadzu, Kyoto, Japan). Concentrations of met-Mb and met-Hb, as well as reduced-Mb and reduced-Hb, were determined at 409 nm and 435 nm, respectively. Concentrations of oxy-Mb and oxy-Hb were determined at 544 nm and 582 nm, respectively. 17

H2DCF = assay: Redox activity: H2DCF oxidation to DCF (cell-free, L-cysteine/H2O2); type: biochemical; conditions: 10 μM, pH 7.4 and pH 5, no added CuCl2
Method: Redox activity in cells was examined using an established in vitro method examining 2′,7′-dichlorodihydrofluorescein (H2DCF) oxidation to fluorescent 2′,7′-dichlorofluorescein (DCF) at cytosolic pH (pH 7.4 using HBSS buffer) relative to lysosomal pH (pH 5; acetate buffer; Fig. 5).[25,26,28,42,46] To these buffers containing the complexes, L-cysteine (100 μM) was added as a reducing agent, followed by H2DCF (5 μM). Then, hydrogen peroxide (H2O2; 100 μM) was added to initiate hydroxyl radical generation. Both [Cu(DpC)Cl2] and [Cu(DpC)2] were used as positive controls due to their documented redox activity.[28,42] In contrast, the ligand, DpC, was implemented as a negative control, as it is redox inert.[28,42] As an additional control, the established Cu chelator, tetrathiomolybdate (TM), was utilized to remove Cu from the thiosemicarbazone complexes to indicate its role in their redox activity.[27,28,42] Additionally, UV-vis spectroscopy (300–700 nm) of the same solution for each complex was also performed to understand both the oxidation of H2DCF and the formation of fluorescent DCF upon excitation at 503 nm (Fig. S20A–F and S21A–F ^†). […]
ROS Generation Analysis with H 2DCF-DA
The generation of reactive oxygen species (ROS) was assessed by examining the oxidation of H2DCF.2, 8, 13, 14 Solutions containing CuCl2, TM, DpC, Dp4e4mT, [Fe(DpC)2]+, [Cu(DpC)Cl2], [Cu(DpC)2] and the Dp4e4mT complexes were prepared at a concentration of 10 µM in either HBSS (pH 7.4) or 150 mM acetate buffer (pH 5) to simulate the conditions of the cytosol and lysosome, respectively.2, 8, 14, 15 The H2DCF was prepared by deacetylation of DCFH-DA (Sigma-Aldrich) through alkaline hydrolysis using NaOH. 16
In these prepared solutions, L-cysteine (100 µM) was added as a reducing agent and then H2DCF (5 µM) added. The initiation of hydroxyl radical generation was achieved by the addition of hydrogen peroxide (H2O2; 100 µM). As a comparative benchmark, HBSS or acetate buffer containing L-cysteine, H2DCF, and H2O2, but lacking ligands or metal complexes, was employed as a control. Fluorescence measurements were carried out using a CLARIOstar Plus microplate reader (BMG LABTECH, Australia) with an excitation wavelength of 485 nm and an emission wavelength of 530 nm. 8, 14

T1 sequence (P69905 2-142 limits assumed): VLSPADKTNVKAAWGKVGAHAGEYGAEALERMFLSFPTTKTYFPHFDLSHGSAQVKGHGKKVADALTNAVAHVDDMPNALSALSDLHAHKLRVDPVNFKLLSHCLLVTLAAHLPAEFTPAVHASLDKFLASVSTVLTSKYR
T1 sequence (P68871 2-147 limits assumed): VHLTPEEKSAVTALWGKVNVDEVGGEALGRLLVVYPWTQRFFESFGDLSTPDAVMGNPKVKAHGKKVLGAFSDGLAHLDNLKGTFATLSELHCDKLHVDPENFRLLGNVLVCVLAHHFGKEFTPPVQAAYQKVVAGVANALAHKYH

Redox potential (mV vs. NHE) [1] | oxy-Mb oxidation (met-Mb generation) (oxy-Mb) | Structure (SMILES) | oxy-Hb oxidation in erythrocytes versus the control (in words) [2] | DCF fluorescence (H2DCF oxidation) of agent alone (H2DCF) | other results
+166 mV vs. NHE | 222 % of the control | CN(C)C([S-])=NN=C(c1ccccn1)c1ccccn1.CN(C)C([S-])=NN=C(c1ccccn1)c1ccccn1.[Fe+3] [[Fe(Dp44mT)2]^+, reference compound] | – | – | oxy-Hb oxidation to met-Hb in erythrocytes ([2]; control 0.5%): 34.4 % of the total
+149 mV vs. NHE | 161 % of the control | CN(C([S-])=NN=C(c1ccccn1)c1ccccn1)C1CCCCC1.CN(C([S-])=NN=C(c1ccccn1)c1ccccn1)C1CCCCC1.[Fe+3] [[Fe(DpC)2]^+, reference compound] | did not induce any significant (p > 0.05) increase in oxy-Hb oxidation | – | –
– | – | [Cl][Cu][Cl] [CuCl2, reference compound] | – | significantly (p < 0.0001–0.01) increased DCF fluorescence | –
– | – | CN(C(=S)NN=C(c1ccccn1)c1ccccn1)C1CCCCC1.[Cl-].[Cl-].[Cu+2] [[Cu(DpC)Cl2], reference compound] | – | significantly (p < 0.0001–0.01) increased DCF fluorescence; also recorded: greatest efficacy at increasing DCF fluorescence | –
– | – | [SH-].[SH-].[S]=[Mo]=[S] [TM, tetrathiomolybdate, reference compound] | – | did not significantly (p > 0.05) increase DCF fluorescence | –
– | – | CC(=O)N([O-])CCCCCNC(=O)CCC(=O)N([O-])CCCCCNC(=O)CCC(=O)N([O-])CCCCCN.[Fe+3] [DFO Fe(III) complex, reference compound] | did not induce any significant (p > 0.05) increase in oxy-Hb oxidation | – | –
